Experiment [1] concerns the target T1, extracellular domain of IGF-IR (Homo sapiens, UniProt P08069).
T1 construct: Different concentrations of the extracellular domain of IGF-IR were injected on the sensorchip
Kind of experiment: BIAcore affinity measurement, Protocol 1. Format: binding. The following applies: BIAcore 3000; antibody captured on protein-A, IGF-IR extracellular domain injected. As to the method:
We performed affinity measures of purified antibodies by surface plasmon resonance using the BIAcore 3000 instrument, following the manufacturer's protocols.
To perform kinetic analyses, protein-A was immobilized on the sensorchip surfaces of the BIAcore. The sensorchip was then used to capture the anti-IGF-IR antibodies of the present invention. Different concentrations of the extracellular domain of IGF-IR were injected on the sensorchip and the binding and dissociation kinetics of the interactions between the anti-IGF-IR antibodies and the extracellular domain of IGF-IR were analyzed. The data were evaluated with global fit Langmuir 1:1, using baseline drift models available on the BIAevaluation software provided by BIAcore.

The subject of a further experiment is IGF-IR from the marmoset. The experiment can be described thus: Species crossreactivity by immunoprecipitation/Western blot. Format: binding. The following applies: immunoprecipitation, antibody 1 μg/ml. As to the method: (§1) To perform immunoprecipitation experiments, we plated cells in DMEM high glucose media supplemented with L-glutamine (0.29 mg/ml), 10% heat-inactivated FBS, and 500 μg/ml each of geneticin, penicillin and streptomycin to 50% confluence in T25 flasks. We then added 100 μl of an antibody of the invention in Hank's buffered saline solution (HBSS; Gibco BRL) at a concentration of 1 μg/ml. We incubated the plates for 30 minutes at 37° C. in an incubator and then stimulated the cells with IGF-I at 100 ng/ml for 10 minutes at room temperature. We lysed the cells in RIPA buffer (Harlow and Lane, supra) and immunoprecipitated IGF-IR with 2 μg of pan-specific SC-713 anti-IGF-IR antibody (Santa Cruz) plus protein A agarose beads for 1 hour at 4° C. We pelleted the beads and wash three times with PBS/T (PBS+0.1% Tween-20) and then boiled the beads in 40 μl Laemmli buffer containing 5% βME.
(§2) The samples prepared as described above were then analyzed by Western blot. We loaded 12 μl of each sample per lane on 4-10% gradient Novex™ gels run with 1×MES buffer (Novex™). Gels were run at 150V for 1 hour or at 200V for approximately 30 minutes. We then transferred the gel to a membrane in Novex™ transfer buffer with 10% methanol either overnight at 100 mA or for 1-1.5 hours at 250 mA. We then allowed the membrane to dry completely and blocked at room temperature with TBS (Tris-buffered saline pH 8.0) containing Superblock (Pierce Chemical Co.). We added the IGF-IR blotting antibody SC713 (Santa Cruz) to detect immunoprecipitated IGF-IR.
A general note: A western blot detects proteins with antibodies after separation by electrophoresis.

A further experiment concerns Rhesus IGF-IR. The experiment is described as above. The experiment is classed as binding. The following applies: immunoprecipitation, antibody 1 μg/ml. The method, then:
as §1, §2

The subject of another experiment is canine IGF-IR. Described as above. Format: binding. The following applies: immunoprecipitation, antibody 1 μg/ml. As to the method:
as §1, §2

For another experiment, the system named is guinea pig IGF-IR. The experiment is described as above. The experiment is classed as binding. The following applies: immunoprecipitation, antibody 1 μg/ml. As to the method:
as §1, §2

Another experiment has as its system rabbit IGF-IR. The description is as above. The experiment is classed as binding. The following applies: immunoprecipitation, antibody 1 μg/ml. As to the method:
as §1, §2

The subject of the next experiment is COS7 IGF-IR. Described as above. The experiment is classed as binding, old world monkey. The following applies: immunoprecipitation, antibody 1 μg/ml. As to the method: as §1
(§3) The samples prepared as described above were then analyzed by Western blot. We loaded 12 μl of each sample per lane on 4-10% gradient Novex™ gels run with 1×MES buffer (Novex™). Gels were run at 150V for 1 hour or at 200V for approximately 30 minutes. We then transferred the gel to a membrane in Novex™ transfer buffer with 10% methanol either overnight at 100 mA or for 1-1.5 hours at 250 mA. […]

The next experiment deals with 3T3/IGF-IR cell tumors. The experiment can be described thus: Growth inhibition of 3T3/IGF-IR cell tumors. The experiment is classed as in vivo, athymic (nu/nu) mice. As to the method: We tested whether anti-IGF-IR antibodies of the invention would function to inhibit tumor growth. We induced tumors as described above (Example VIII) and when established, palpable tumors formed (i.e. 250 mm^3, within 6-9 days), we treated the mice with a single, 0.20 ml dose of antibody by intraperitoneal injection. We measured tumor size by Vernier calipers across two diameters every third day and calculated the volume using the formula (length×[width]^2)/2 using methods established by Geran, et al., “Protocols for screening chemical agents and natural products against animal tumors and other biological systems,” Cancer Chemother. Rep. 3:1-104.
Tumors were induced in nude mice as described in Example IX. Mice with established subcutaneous tumors of approximately 250 mm^3 were treated on days 1, 8, 15 and 22 with various amounts of 2.13.2 antibody (i.p.) or 7.5 mg/kg adriamycin (i.v.), either as single agents or in combination, as described in Example IX.
Tumors were induced in nude mice as described in Example IX. Mice with large established subcutaneous tumors of slightly less than 2000 mm^3 were treated on days 1 and 8 with various amounts of 2.13.2 antibody (i.p.) or 7.5 mg/kg adriamycin (i.v.), either as single agents or in combination, as described in Example IX. […] Control, antibody alone and adriamycin alone animal groups were terminated at day 5, when the tumor size exceeded 2000 mm^3.

The next experiment deals with IGF-IR (Homo sapiens, UniProt P08069). Kind of experiment: Species crossreactivity by immunoprecipitation/Western blot. Format: binding. Further details: on cells from a variety of animals; endogenous in cells. The following applies: immunoprecipitation, antibody 1 μg/ml. As to the method:
as §1, §3

One may read the Kd as the free concentration of one partner at which half of the binding sites on the other are occupied at equilibrium, for simple one-to-one binding. The low end stands for higher affinity, the high end for lower affinity. The substance “2.13.2: human IgG2κ monoclonal antibody specific for IGF-IR from hybridoma 2.13.2 (ATCC PTA-2788)” came in with a Kd in experiment [1] of 3.5 nM. Moreover, in the experiment on IGF-IR from the marmoset, the “binding to marmoset IGF-IR” value is given as “not”. For the same substance, in the experiment on Rhesus IGF-IR, the “binding to Rhesus IGF-IR” value is on record as “able to bind”. In addition, the “binding to canine IGF-IR” value with canine IGF-IR was “not”. For the same substance, in the experiment with guinea pig IGF-IR, the “binding to guinea pig IGF-IR” value is “not”. For the same substance, the “binding to rabbit IGF-IR” value in the experiment with rabbit IGF-IR is reported as “not”. For the same substance, the “binding to COS7 IGF-IR” value in the experiment on COS7 IGF-IR is recorded as “able to bind”. Further, the tumor cell growth result with 3T3/IGF-IR cell tumors (antibody i.p. on days 1, 8, 15 and 22, single agent) is recorded as “inhibits tumor cell growth”. Besides, the “growth delay versus treatment with the antibody or adriamycin alone” value in the experiment on 3T3/IGF-IR cell tumors (combination with single dose 7.5 mg/kg adriamycin i.v.) is on record as 7 days. Moreover, the “tumor cell growth in combination with adriamycin” value in the experiment on 3T3/IGF-IR cell tumors (days 1, 8, 15 and 22, with 7.5 mg/kg adriamycin i.v.) is recorded as “enhances inhibition of tumor cell growth”. Also, the “effect on effectiveness of adriamycin” value in the experiment with 3T3/IGF-IR cell tumors (single dose antibody with single dose 7.5 mg/kg adriamycin i.v.) was “enhanced the effectiveness of adriamycin”. Moreover, the tumor growth entry in the experiment with 3T3/IGF-IR cell tumors (single treatment i.p., antibody alone) is on record as “inhibited the growth”. Also, in the experiment on 3T3/IGF-IR cell tumors (tumors slightly less than 2000 mm^3, days 1 and 8, with 7.5 mg/kg adriamycin i.v.), the “efficacy against large tumors in combination with adriamycin” value was “highly efficacious”. Besides, the “binding to human IGF-IR” value with IGF-IR was “able to bind”.

The values are drawn from US7815907B2, “Antibodies to insulin-like growth factor I receptor” (Amgen Fremont Inc., priority 2001, dated 2010).
